Laboratory results from ChEMBL document CHEMBL3885881, “DrugMatrix”.

Organism: Rattus norvegicus
Assay: DrugMatrix - Regimen: Daily Repeat
Type: toxicity, organism-based, Sprague-Dawley
Set-up: regimen Daily Repeat, gender Male, age 6-8 weeks
Details: in vivo, po, 200 mg/kg, route oral GAVAGE, dose level Low, […]; for ABSOLUTE BASOPHIL / ABSOLUTE EOSINOPHIL / ABSOLUTE LYMPHOCYTE / ABSOLUTE MONOCYTE / ABSOLUTE SEGMENTED NEUTROPHIL / BASOPHIL / EOSINOPHIL / ERYTHROCYTE COUNT / HEMATOCRIT / HEMOGLOBIN / LEUKOCYTE COUNT / LYMPHOCYTE / MEAN CORPUSCULAR HEMOGLOBIN / MEAN CORPUSCULAR HEMOGLOBIN CONCENTRATION / MEAN CORPUSCULAR VOLUME / MONOCYTE / NEUTROPHIL / NUCLEATED RED BLOOD CELLS / PLATELET COUNT: tissue Blood
[1] = 72 h, tissue Plasma, time 3 day
[2] = 120 h, tissue Plasma, time 5 day

CCOc1ccc(NC(C)=O)cc1 [PHENACETIN]
ABSOLUTE BASOPHIL (72 h, time 3 day): 0 CELLS/uL | ABSOLUTE EOSINOPHIL (72 h, time 3 day): 0 CELLS/uL | ABSOLUTE LYMPHOCYTE (72 h, time 3 day): 12319.33 CELLS/uL | ABSOLUTE MONOCYTE (72 h, time 3 day): 297 CELLS/uL | ABSOLUTE SEGMENTED NEUTROPHIL (72 h, time 3 day): 1617 CELLS/uL | BASOPHIL (72 h, time 3 day): 0% | EOSINOPHIL (72 h, time 3 day): 0% | ERYTHROCYTE COUNT (72 h, time 3 day): 5.63 x10E6/uL | HEMATOCRIT (72 h, time 3 day): 34.9% | HEMOGLOBIN (72 h, time 3 day): 13.6 G/DL | LEUKOCYTE COUNT (72 h, time 3 day): 14.23 x10E3/uL | LYMPHOCYTE (72 h, time 3 day): 87% | MEAN CORPUSCULAR HEMOGLOBIN (72 h, time 3 day): 24.17 pg | MEAN CORPUSCULAR HEMOGLOBIN CONCENTRATION (72 h, time 3 day): 38.97 G/DL | MEAN CORPUSCULAR VOLUME (72 h, time 3 day): 62.03 fL | MONOCYTE (72 h, time 3 day): 2% | NEUTROPHIL (72 h, time 3 day): 11% | NUCLEATED RED BLOOD CELLS (72 h, time 3 day): 0 /100WBC | PLATELET COUNT (72 h, time 3 day): 1192.67 x10E3/uL | ALANINE AMINOTRANSFERASE [1]: 73 u/L | ALBUMIN [1]: 4.07 G/DL | ALKALINE PHOSPHATASE [1]: 405 u/L | ASPARTATE AMINOTRANSFERASE [1]: 98.33 u/L | BLOOD UREA NITROGEN [1]: 12 mg/dL | CARBON DIOXIDE [1]: 24.67 mmol/L | CHLORIDE [1]: 101 MEQ/L | CHOLESTEROL [1]: 65.33 mg/dL | CREATININE [1]: 0.2 mg/dL | GLUCOSE [1]: 172 mg/dL | LACTATE DEHYDROGENASE [1]: 186.33 u/L | LIPASE [1]: 11.33 u/L | PHOSPHORUS [1]: 11.6 mg/dL | POTASSIUM [1]: 6.01 MEQ/L | SODIUM [1]: 142.63 MEQ/L | TOTAL BILIRUBIN [1]: 0.2 mg/dL | TOTAL PROTEIN [1]: 5.6 G/DL | URIC ACID [1]: 1.77 mg/dL | ABSOLUTE BASOPHIL (120 h, time 5 day): 0 CELLS/uL | ABSOLUTE EOSINOPHIL (120 h, time 5 day): 0 CELLS/uL | ABSOLUTE LYMPHOCYTE (120 h, time 5 day): 14305.33 CELLS/uL | ABSOLUTE MONOCYTE (120 h, time 5 day): 246 CELLS/uL | ABSOLUTE SEGMENTED NEUTROPHIL (120 h, time 5 day): 1648.67 CELLS/uL | BASOPHIL (120 h, time 5 day): 0% | EOSINOPHIL (120 h, time 5 day): 0% | ERYTHROCYTE COUNT (120 h, time 5 day): 5.8 x10E6/uL | HEMATOCRIT (120 h, time 5 day): 35.23% | HEMOGLOBIN (120 h, time 5 day): 14.07 G/DL | LEUKOCYTE COUNT (120 h, time 5 day): 16.2 x10E3/uL | LYMPHOCYTE (120 h, time 5 day): 88% | MEAN CORPUSCULAR HEMOGLOBIN (120 h, time 5 day): 24.27 pg | MEAN CORPUSCULAR HEMOGLOBIN CONCENTRATION (120 h, time 5 day): 39.93 G/DL | MEAN CORPUSCULAR VOLUME (120 h, time 5 day): 60.8 fL | MONOCYTE (120 h, time 5 day): 1.67% | NEUTROPHIL (120 h, time 5 day): 10.33% | NUCLEATED RED BLOOD CELLS (120 h, time 5 day): 0 /100WBC | PLATELET COUNT (120 h, time 5 day): 1381.67 x10E3/uL | ALANINE AMINOTRANSFERASE [2]: 72.67 u/L | ALBUMIN [2]: 4.13 G/DL | ALKALINE PHOSPHATASE [2]: 403.33 u/L | ASPARTATE AMINOTRANSFERASE [2]: 95.33 u/L | BLOOD UREA NITROGEN [2]: 13.33 mg/dL | CARBON DIOXIDE [2]: 31.33 mmol/L | CHLORIDE [2]: 101.33 MEQ/L | CHOLESTEROL [2]: 68.67 mg/dL | CREATINE PHOSPHOKINASE [2]: 257.33 u/L | CREATININE [2]: 0.19 mg/dL | GLUCOSE [2]: 164.67 mg/dL | LACTATE DEHYDROGENASE [2]: 323.67 u/L | LIPASE [2]: 11.67 u/L | PHOSPHORUS [2]: 10.7 mg/dL | POTASSIUM [2]: 6.24 MEQ/L | SODIUM [2]: 143.9 MEQ/L | TOTAL BILIRUBIN [2]: 0.2 mg/dL | TOTAL PROTEIN [2]: 5.87 G/DL | URIC ACID [2]: 1.77 mg/dL
